From patent publication US9254299B2, “Administration of hypoxia activated prodrugs in combination with Chk1 inhibitors for treating cancer” (THRESHOLD PHARMACEUTICALS, INC., priority 2011, dated 2016)
“Also recorded” adds a separate entry of the source. Like-named read-outs stand apart in the source and are kept apart here. Residues, ends and D or L forms follow the SMILES beside them. *: point of attachment. Cbz = O=C(OCc1ccccc1)*; CH2F = FC*

Key:
Cdc2-Y15 phosphorylation = assay: Immunoblot of Cdc2-Y15 phosphorylation and protein expression; format: cell-based; conditions: for Cdc2-Y15 phosphorylation / DNA damaging agent-induced increase of Cdc2-Y15 phosphorylation in the presence of the Chk1 inhibitor: HeLa; for Cdc2-Y15 phosphorylation: agent alone; for DNA damaging agent-induced increase of Cdc2-Y15 phosphorylation in the presence of the Chk1 inhibitor: with Chk1 inhibitor
Protocol: (§1) HeLa cells were treated with TH-302 and a Chk1 inhibitor as described in Example 1. Cells were harvested and analyzed for cell cycle distribution by flow cytometry and for protein expression by immunoblot.

Du145 cells = assay: 3-day in vitro proliferation assay, AlamarBlue, Du145 cells; format: cell-based; conditions: Du145, p53 heterozygous
Protocol: (§2) After a wash to remove drugs, cells were incubated with fresh media at 37° C. for an additional 3 days in the presence of a Chk1 inhibitor. Cell viability was determined using AlamarBlue. For a doxorubicin group (doxorubicin also induces cell cycle arrest in the G2/M phase and was used as a non-hypoxia activated prodrug control), cells were co-treated with doxorubicin and Chk1 inhibitors for 3 days.
Appropriate Du145 and H460 cells were treated with TH-302 and Chk1 inhibitors as described in Example 1.

H460 cells = assay: 3-day in vitro proliferation assay, AlamarBlue, H460 cells; format: cell-based; conditions: for change of activity by the presence of Chk1 inhibitors: H460, p53 wild type; for anti cancer efficacy in combination with TH-302: H460 non-small cell lung cell line
Protocol: as §2

HT29 cells [1] = assay: 3-day in vitro proliferation assay, AlamarBlue, HT29 cells; format: cell-based; conditions: for anti cancer efficacy in combination with TH-302: HT-29 colon cell line
Protocol: as §2

Hela cells [2] = assay: 3-day in vitro proliferation assay, AlamarBlue, Hela cells; format: cell-based; conditions: for anti cancer efficacy in combination with TH-302: HeLa cervical cell line
Protocol: as §2

HT29 cells [3] = assay: Luminescence-based caspase activity assay (Caspase Glo3/7), apoptosis; format: cell-based; conditions: for induction of apoptosis: TH-302 0-10 μM air, 0-1 μM N2, AZD7762 0.1 μM, 2 hr + 46 hr
Protocol: Induction of apoptosis was also assessed. HT29 cells were seeded at a density of 40,000 cells per well of a 24 well plate. […] A luminescence-based caspase activity assay was performed. […] To validate the specificity of apoptotic signal, the pan-caspase inhibitor ZVAD was included in the testing.

HT-29 tumor = assay: HT29 xenograft antitumor activity; format: in vivo; conditions: HT-29 tumor-bearing mice, i.p., drug alone (TH-302 50 mg/kg QD×5/wk×2 wks or 100 mg/kg twice/wk×2 wks; AZD7762 12.5 mg/kg)
γH2AX = γH2AX immunofluorescence (DNA damage response); format: cell-based; conditions: p53−/− HT29 cells; 2 hr normoxic or hypoxic, then 4 hr; AZD7762 0.1 μM
Protocol: HT29 cells were permeabilized with 1% Triton X-100 and incubated with γH2AX monoclonal antibody for 2 hr and goat anti-mouse-FITC for 1 hr. Cells were imaged using a fluorescent microscope (Nikon TS-100).

Chk2 = Chk2 (Homo sapiens, UniProt O96017); conditions: read-out: IC50 for Chk2; cited from earlier work
p53 deficient cells = assay: Proliferation assay in p53 deficient cells (Horizon Discovery); format: cell-based
Protocol: as §2
(§3) Cells (provided by Horizon Discovery Ltd. and generated using Horizon's adeno-associated virus (AAV) technology Genesis™) were treated as described in Example 1.

irs1SF = assay: Cytotoxicity in HDR deficient irs1SF cells; format: cell-based
Protocol: as §2
(§4) To investigate which DNA repair system is affected by Chk-1 inhibitor-mediated enhancement of TH-302 cytotoxicity, CHO cell-based DNA repair mutant cell line pairs were utilized. The experimental details were as described in Example 1. […] HDR (homology-dependent repair) is the specific type of DNA repair capable of repairing TH-302-induced DNA damage.

AA8 CHO cells = assay: Cytotoxicity in HDR proficient AA8 CHO cells; format: cell-based; conditions: Cricetulus griseus
Protocol: as §2, §4

p53 proficient cells = assay: Proliferation assay in p53 proficient cells (Horizon Discovery); format: cell-based
Protocol: as §2, §3

Rad51 = assay: Immunoblot of Rad51 expression; format: cell-based; conditions: HT29; samples as for the Histone H3 blot
Protocol: To explore involved signaling pathways, an immunoblot analysis was conducted. HT29 cells were seeded in p60 dishes at a density of 2×10^6 cells per dish and incubated overnight for cell attachment. […] Insoluble debris was pelleted and the protein concentration of the resulting supernatant determined using a Sigma BCA kit (St. Louis, Mo.). About 10 μg of protein from each sample were loaded onto and SDS gel and electrophoresed and then electrotransferred to a nitrocellulose membrane. Proteins were detected with an electrochemiluminescent detection system (ChemiGlow; Protein Simple, Santa Clara, Calif.) using antibodies recognizing Histone H3.
The samples were collected as described above for the Histone H3 blot. In response to TH-302, Rad51 expression levels were increased.

Hela cells [4] = assay: Cell cycle distribution by flow cytometry; format: cell-based
Protocol: as §1

UV41 = assay: Cytotoxicity in HDR deficient UV41 cells; format: cell-based
Protocol: as §2, §4

Chk2, sequence (O96017 whole entry): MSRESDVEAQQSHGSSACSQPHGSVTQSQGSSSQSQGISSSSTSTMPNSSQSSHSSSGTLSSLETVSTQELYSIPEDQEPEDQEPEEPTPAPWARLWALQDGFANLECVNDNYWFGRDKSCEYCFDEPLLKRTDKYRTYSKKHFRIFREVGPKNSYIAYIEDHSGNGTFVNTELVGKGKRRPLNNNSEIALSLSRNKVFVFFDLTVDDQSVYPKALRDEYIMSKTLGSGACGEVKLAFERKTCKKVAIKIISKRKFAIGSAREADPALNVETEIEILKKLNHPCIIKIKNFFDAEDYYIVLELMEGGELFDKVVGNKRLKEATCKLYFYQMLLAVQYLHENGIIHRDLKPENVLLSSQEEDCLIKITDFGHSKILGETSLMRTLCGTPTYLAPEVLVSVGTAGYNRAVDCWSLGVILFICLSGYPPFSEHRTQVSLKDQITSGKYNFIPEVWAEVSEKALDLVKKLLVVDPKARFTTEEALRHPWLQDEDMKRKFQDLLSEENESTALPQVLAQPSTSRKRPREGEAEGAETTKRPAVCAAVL

COc1cccc2c1C(=O)c1c(O)c3c(c(O)c1C2=O)C[C@@](O)(C(=O)CO)C[C@@H]3O[C@H]1C[C@H](N)[C@H](O)[C@H](C)O1 [doxorubicin, reference compound]
Cdc2-Y15 phosphorylation (Cdc2-Y15 phosphorylation): upregulate phosphorylation of Cdc2-Y15
DNA damaging agent-induced increase of Cdc2-Y15 phosphorylation in the presence of the Chk1 inhibitor (Cdc2-Y15 phosphorylation): completely eliminated
change of activity by the presence of Chk1 inhibitors (Du145 cells): lack of enhanced activity
change of activity by the presence of Chk1 inhibitors (H460 cells): lack of enhanced activity

Cc1cnc(NC(=O)Nc2cc(Br)c(C)cc2OC[C@@H]2CNCCO2)cn1 [LY2603618]
anti cancer efficacy in combination with TH-302 (HT29 cells [1]): increased anti cancer efficacy
anti cancer efficacy in combination with TH-302 (Hela cells [2]): increased anti cancer efficacy
anti cancer efficacy in combination with TH-302 (H460 cells): not

NC(=O)Nc1cc(-c2cccc(F)c2)sc1C(=O)N[C@H]1CCCNC1 [AZD7762]
induction of apoptosis (HT29 cells [3]): slight increase
anti cancer efficacy in combination with TH-302 (HT29 cells [1]): increased anti cancer efficacy
tumor growth (HT-29 tumor): produced a growth delay
γH2AX staining (γH2AX): could induce γH2AX
IC50 (Chk2): < 0.01 µM
anti cancer efficacy in combination with TH-302 (Hela cells [2]): increased anti cancer efficacy
anti cancer efficacy in combination with TH-302 (H460 cells): not

CC(NC(=O)C(NC(=O)OCc1ccccc1)C(C)C)C(=O)NC(CC(=O)O)C(=O)CF (stereo not drawn) [ZVAD] (Cbz-Val-Ala-Asp-CH2F; configuration not given here)
apoptotic signal generated by the combination therapy (HT29 cells [3]; added to TH-302 and AZD7762): reduced the apoptotic signal

Cn1c(COP(=O)(NCCBr)NCCBr)cnc1[N+](=O)[O-] [TH-302]
change of activity by co-treatment with a Chk1 inhibitor (p53 deficient cells): significantly enhanced
induction of apoptosis (HT29 cells [3]): did not induce apoptosis
IC50 (irs1SF; N2, read-out: IC50 of TH-302 monotherapy): 0.4 µM
IC50 (irs1SF; N2, with AZD7762 (0.1 μM), read-out: TH-302 IC50): 0.3 µM
IC50 (irs1SF; air, read-out: IC50 of TH-302 monotherapy): 54 µM
IC50 (irs1SF; air, with AZD7762 (0.1 μM), read-out: TH-302 IC50): 63 µM
enhancement of TH-302 activity by the presence of a Chk1 inhibitor (HT29 cells [1]; HT29, p53-deficient, any one of PF477736, AZD7762, LY2603618): 15 to 50 fold
change of activity by the presence of Chk1 inhibitors (HT29 cells [1]; HT29, 0.4 μM PF477736, 0.1 μM AZD7762 or 0.5 μM LY2603618, normoxia or hypoxia): significantly enhanced
tumor growth (HT-29 tumor): produced a growth delay
IC50 (AA8 CHO cells; AA8, N2, read-out: IC50 of TH-302 monotherapy): 3.2 µM
IC50 (AA8 CHO cells; AA8, N2, with AZD7762 (0.1 μM), read-out: TH-302 IC50): 1.2 µM
IC50 (AA8 CHO cells; AA8, air, read-out: IC50 of TH-302 monotherapy): 490 µM
IC50 (AA8 CHO cells; AA8, air, with AZD7762 (0.1 μM), read-out: TH-302 IC50): 260 µM
change of activity by co-treatment with a Chk1 inhibitor (p53 proficient cells): not
γH2AX staining (γH2AX): could induce γH2AX
Rad51 expression levels (Rad51): increased
expression of Cdc-2, Myt1 and Chk1 (Cdc2-Y15 phosphorylation): does not affect
Cdc2-Y15 phosphorylation (Cdc2-Y15 phosphorylation): upregulate phosphorylation of Cdc2-Y15
DNA damaging agent-induced increase of Cdc2-Y15 phosphorylation in the presence of the Chk1 inhibitor (Cdc2-Y15 phosphorylation): completely eliminated
change of activity by the presence of Chk1 inhibitors (Du145 cells): not enhanced
cell cycle arrest (Hela cells [4]; agent alone): concentration-dependent cell cycle arrest at G2/M
TH-302-mediated G2/M arrest in the presence of the Chk1 inhibitor (Hela cells [4]; with Chk1 inhibitor): abrogated
IC50 (UV41; UV41, N2, with AZD7762 (0.1 μM), read-out: TH-302 IC50): 0.06 µM
IC50 (UV41; UV41, N2, read-out: IC50 of TH-302 monotherapy): 0.07 µM
IC50 (UV41; UV41, air, with AZD7762 (0.1 μM), read-out: TH-302 IC50): 26 µM
IC50 (UV41; UV41, air, read-out: IC50 of TH-302 monotherapy): 29 µM
enhancement of TH-302 activity by the presence of a Chk1 inhibitor (Hela cells [2]; Hela, p53-deficient, any one of PF477736, AZD7762, LY2603618): 15 to 50 fold
change of activity by the presence of Chk1 inhibitors (Hela cells [2]; Hela, 0.4 μM PF477736, 0.1 μM AZD7762 or 0.5 μM LY2603618, normoxia or hypoxia): significantly enhanced
change of activity by the presence of Chk1 inhibitors (H460 cells): not enhanced; also recorded: not affected

PF477736
anti cancer efficacy in combination with TH-302 (HT29 cells [1]): increased anti cancer efficacy
anti cancer efficacy in combination with TH-302 (Hela cells [2]): increased anti cancer efficacy
anti cancer efficacy in combination with TH-302 (H460 cells): not
